Test results from patent US20240091267A1, “PRE-TREATMENT OF MSC WITH PPARB/DELTA AGONIST FOR TREATMENT OF ISCHEMIA-REPERFUSION INJURY” (Universite de Montpellier, priority 2020, published 2024).

Key:
[1] = system: LV protein extracts from murine IR hearts; assay: Western blot of LV protein extracts from ex vivo IR hearts (cleaved caspase 3, pAKT/AKT, pERK1/2/ERK1/2); design: species or system mouse (C57BL/6J); conditions: for Cleaved caspase 3 (caspase 3 activation): IR hearts reperfused with MSC 2500 cells/mL, pre-treated 24 h or not (GW0742 1 μM)
Procedure: FIG. 9: (A) C57B16 mouse hearts were mounted on a Langendorff system. The ex vivo protocol comprises a 15 minute-period of stabilization, followed by 30 minutes of global ischemia achieved by stopping the flow through the aorta (no-flow). Reperfusion was achieved by restoring the Tyrode perfusion during 60 minutes (IR group). […] At the end of the protocol, hearts were collected, protein extracted for further analysis. (B, C, D) Western blot analysis was performed from LV protein extracts from IR non-treated or MSC-treated murine IR hearts (ex vivo) with or without a pharmacological pre-treatment. Scatter dot blots and mean±SD were plotted for Cleaved-caspase 3 (W=0.0322 for IR, n=10 vs MSC +GW0742, n=10) and for pAKT/AKT (p*=0.0385 for IR, n=8 vs MSC+GW0742, n=8). Data were compared using non parametric Kruskal-Wallis test (Dunn's post hoc test).
On the Langendorff system, the heart was subjected to ischemia-reperfusion (IR) protocol comprising, after a 15 min-stabilization period of Tyrode perfusion, a 30 min-period of no-flow to induce global ischemia). Reperfusion was achieved by restoring the perfusion during 60 min with the Tyrode solution alone (IR control) or with MSC cell in Tyrode solution (MSC) administrated during reperfusion. Ischemic postconditioning was induced at the end of global ischemia by the application of a conditioning stimulus comprising 3 cycles of 1 min-reperfusion/1 min-ischemia, followed by 54 min of reperfusion. For the ex vivo evaluation of MSC-based cell therapy, 80 to 150 mL of MSC (mean value 120 mL) cells prepared in the Tyrode solution at various concentrations (2500, 5000 et 20000 cells/mL) were perfused retrogradely via the aorta and the coronary vessels in isolated hearts during the 60 min-reperfusion phase.
Tissue samples (left ventricle) were rapidly frozen in liquid nitrogen after the end of ex vivo IR protocols. […] Protein concentrations were determined with the bicinchoninic acid (BCA) protein assay kit (Pierce). […]

[2] = system: H9c2 cardiomyocytes; assay: Transwell co-culture of MSC with H9c2 exposed to H2O2, specific DNA fragmentation in H9c2; assay type: cell-based, rattus norvegicus; conditions: vs naive MSC
Procedure: FIG. 7: Increased anti-apoptotic effects of PPARβ/δ-primed MSC on cardiomyocytes. (A) After 24 hours of MSC pharmacological preconditioning using PPARβ/δ agonist, cells were co-cultured using transwells (upper chamber) with H9c2 (lower chamber). Both cultures were exposed to 4 hours of 350 μM of H2O2 in minimal medium (serum deprivation). At the end of the protocol, specific DNA fragmentation was quantified in H9c2 cells and values were compared with those obtained for co-cultures with naive MSC or MSC pre-treated with PPARβ/δ antagonists (GSK0660 or GSK03787) and exposed to 350 H2O2μM (B, C, D) Scatter dot plot and bars were presented for specific DNA fragmentation quantified in H9c2 at the end of the protocols. Data (mean±SD for each group of treatment) were normalized by values obtained with naive MSC/H2O2 and compared using Kruskal-Wallis (Dunn's post hoc test). (B): data were obtained using the condition 1 protocol. (C): the condition 2 protocol P was followed and p value was noted **** for p<0.0001 (MSC, n=16 independent cultures vs MSC/H2O2, n=18). For the data obtained with condition 3 protocol (D), p value was noted * for p=0.0436 (MSC+1 μM GSK0660/H2O2, n=6 vs MSC/H2O2, n=10).
H9c2, rattus norvegicus cardiomyocytes, were cultured in Dulbecco's modified Eagle's medium (DMEM), supplemented with 10% fetal bovine serum (FBS), 100 Units/mL penicillin, and 100 μg/mL streptomycin. To induce apoptosis, H9c2 were cultured in a minimal medium (without FBS) containing 350 μM of H2O2 during 4 hours. In order to evaluate the effect of MSCs on cardiomyocytes, a co-culture assay was designed using the transwell system to avoid cell-cell contact. 15,000 cardiomyocytes (lower part) were plated per well of a 12-well dish with or 15,000 MSC (upper part) in presence of 350 OA of H2O2. Two different protocols of co-culture were performed. In protocol 1, H9c2 and co-cultured MSC were exposed to H2O2(with serum deprivation). In protocol 2, H9c2 were exposed to H2O2 in minimal medium during 4 hours and after a wash, cells were co-cultured in complete medium with MSC. In protocol 3, H9c2 were cultured in presence of H2O2 during 4 hours in regular medium deprived in serum, which was continued for an extra 1 hour. Then the co-culture of H9c2 with MSC was performed in complete medium for 1 hour. At the end of all protocols, H9c2 were recovered for apoptosis and RT-qPCR analysis.
DNA fragmentation was quantified in vitro on cell lysates with an enzyme-linked immunosorbent assay kit (Cell Death ELISA; Roche Diagnostics) designed to measure of histone-complexed DNA fragments (mono- and oligonucleosomes) out of the cytoplasm of cells after the induction of apoptosis.
To determine the role of PPARβ/δ on MSC-induced protective effect on cardiomyocytes we designed and developed three protocols in order to mimic the stress received by MSC when transplanted into infarcted tissues. The first protocol consisted in co-culturing naive or primed MSC with H9c2 exposed to 350 μM of H2O2 for 4 hours using transwell. The second protocol consisted in exposing […] μM of H2O2 for 4 hours before to co-culture them with naive or primed MSC in a complete medium. The third protocol consisted in exposing H9c2 to 350 μM of H2O2 for 4 hours followed by serum deprivation for 1 hour before to co-culture them with naive or primed MSC in a complete medium (FIG. 7A).

[3] = protocol 1: MSC pretreated 24 h with 1 μM, co-cultured with H9c2 under 350 μM H2O2 4 h
[4] = protocol 2: H9c2 exposed to 350 μM H2O2 4 h, then co-culture in complete medium with MSC pretreated with 1 μM
[5] = protocol 3: H9c2 350 μM H2O2 4 h, serum deprivation 1 h, then co-culture in complete medium with MSC pretreated with 1 μM

Row | SMILES | Cleaved caspase 3 (caspase 3 activation) [1] | Phosphorylation ratio pAkt/Akt ([1]; IR hearts, MSC pre-treated with 1 μM prior to administration during reperfusion, vs non-treated IR) | Specific DNA fragmentation in H9c2 (anti-apoptotic effect of MSC) ([2]; protocol 1: MSC pretreated 24 h with 0.1 μM, co-cultured with H9c2 under 350 μM H2O2 4 h) | Specific DNA fragmentation in H9c2 (anti-apoptotic effect of MSC) [2, 3] | Specific DNA fragmentation in H9c2 (anti-apoptotic effect of MSC) [2, 4] | Specific DNA fragmentation in H9c2 (anti-apoptotic effect of MSC) [2, 5]
1 | Cc1cc(SCc2sc(-c3ccc(C(F)(F)F)c(F)c3)nc2C)ccc1OCC(=O)O [GW0742] | inhibition of caspase 3 cleavage was further increased | significantly increased phosphorylation ratio pAkt/Akt | exhibited a higher anti-apoptotic effect | exhibited a higher anti-apoptotic effect | induced a significant protective effect | induced a significant protective effect
2 | COC(=O)c1sccc1S(=O)(=O)Nc1ccc(Nc2ccccc2)cc1OC [GSK0660] | restored full activation of caspase 3 | – | – | lose their capacity to protect cardiomyocytes from apoptosis | did not change MSC protective properties | lose their capacity to protect cardiomyocytes from apoptosis
